The subject of one experiment is SUM149PT xenograft model. Description: Anti-tumour efficacy of AZD5305, carboplatin and combination in SUM149PT xenograft model (Example 3). The experiment is classed as in vivo, mice. The settings on record: AZD5305 0.01 mg/kg PO QD, 28 days. As to the method: SUM149PT cells (2×10^6) were implanted with 50% Matrigel into mammary fat pad (MFP) of female SCID mice (weight greater than 18 g). Tumours were measured (length×width) two times weekly by bilateral Vernier calliper measurements and tumour volume was calculated using elliptical formula (π/6×width×width×length). Animal bodyweight and tumour condition were monitored throughout the studies. Mice were randomised into treatment groups when mean tumour volume reached approximately 0.3 cm^3. Animals were treated from the day after the randomisation. Control animals were treated orally (PO) once daily (QD) with vehicle (deionised water acidified with HCl to pH 3.5-4) and intraperitoneally (IP) once weekly (QW) with PBS. AZD5305 was dosed PO QD at 0.1, 0.03 or 0.01 mg/kg. Carboplatin was dosed IP once weekly (QW) at 37.5 mg/kg. In the combination group, mice were dosed with carboplatin first, followed by AZD5305 administration within 10 minutes.
Tumour growth inhibition from start of treatment was assessed by comparison of the mean change in tumour volume of the control and treated groups and represented as percent tumour growth inhibition (TGI, when TV≥starting TV) or regression (reg, when TV<starting TV). Mean percent body weight change from start of treatment was also calculated for all the groups. Statistical significance was evaluated using a one-tailed t test. […]

For experiment [1], the system named is HBCx-9 patient-derived explant model. Description: Anti-tumour efficacy of AZD5305, carboplatin and combination in HBCx-9 PDX model (Example 2). In kind it is in vivo. The settings on record: carboplatin 50 mg/kg IP QW, 28 days, Nude female mice. The text has this:
HBCx-9 is a patient-derived tumour explant (PDX) model established in XenTech without prior in vitro culture. Tumour fragments were transplanted subcutaneously (SC) onto donor mice. When tumour volume reached 700 to 1764 mm^3, donor mice were sacrificed, and tumours were aseptically excised and dissected. After removing necrotic areas, tumours were cut into fragments measuring approximately 20 mm^3 and transferred in culture medium before grafting SC into the recipient (experimental) Nude female mice. Tumours were measured (length×width) two times weekly by bilateral Vernier calliper measurements and tumour volume was calculated using elliptical formula (π/6×width×width×length). Animal bodyweight and tumour condition were monitored throughout the study. Mice were randomised into treatment groups when mean tumour volume reached approximately 100 mm^3. Animals were treated from the day after the randomisation. […]
Tumour growth inhibition from start of treatment was assessed by comparison of the mean change in tumour volume of the control and treated groups and represented as percent tumour growth inhibition (TGI, when TV≤starting TV) or regression (reg, when TV<starting TV). Mean percent body weight change from start of treatment was also calculated for all the groups. Statistical significance was evaluated using a one-tailed t test. […]

The subject of the next experiment is HBCx-9. The settings on record: HBCx-9 TNBC PDX model, reference [2]; cited from earlier work.

Entries after “also recorded” stand apart in the source; their conditions may differ.

Regarding `CCc1cc2ncc(CN3CCN(c4ccc(C(=O)NC)nc4)CC3)cc2[nH]c1=O` [AZD5305, 5-[4-[(7-ethyl-6-oxo-5H-1,5-naphthyridin-3-yl)methyl]piperazin-1-yl]-N-methyl-pyridine-2-carboxamide], the “Tumour Growth Inhibition/Regression (end of treatment)” value in the experiment with SUM149PT xenograft model was “did not inhibit tumour growth; also recorded: No TGI or regression”. In the case of `N.N.O=C([O-])C1(C(=O)[O-])CCC1.[Pt+2]` [Carboplatin, carboplatin], the “Tumour Growth Inhibition/Regression (end of treatment): TGI” value is 88% TGI *** (p ≤ 0.001) in experiment [1] and 88% in experiment [1] (listed as carboplatin).

For the compound `O=C(c1cc(Cc2n[nH]c(=O)c3ccccc23)ccc1F)N1CCN(C(=O)C2CC2)CC1` [olaparib], in the experiment on HBCx-9, the “sensitivity of HBCx-9 to monotherapy” value is “moderate sensitivity”.

The values above are taken from US20230372333A1, “COMBINATION THERAPY FOR TREATING CANCER” (ASTRAZENECA AB, priority 2020, published 2023).
